Where “and” joins values, the source holds several entries; their conditions need not be identical. Equal values may be shown once.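 These data come from cells grown in 96-well plates and exposed to compound for 48 hours at five concentrations. GI50 is the concentration that inhibits growth by half. The concentration for full growth arrest is given as TGI.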
How the values were obtained:
Assay in all cases: NCI tumour cell line growth inhibition, 48 h
HT29 colon = tested on: HT29 colon
MOLT-4 leukemia = tested on: MOLT-4 leukemia
M14 melanoma = tested on: M14 melanoma
TK-10 renal = tested on: TK-10 renal
SNB-75 CNS = tested on: SNB-75 CNS
SW-620 colon = tested on: SW-620 colon
SF-268 CNS = tested on: SF-268 CNS
HOP-62 NSCLC = tested on: HOP-62 NSCLC
SK-MEL-5 melanoma = tested on: SK-MEL-5 melanoma
ACHN renal = tested on: ACHN renal

Row | Structure (SMILES) | TGI (HT29 colon) | TGI (MOLT-4 leukemia) | TGI (M14 melanoma) | TGI (TK-10 renal) | TGI (SNB-75 CNS) | TGI (SW-620 colon) | TGI (SF-268 CNS) | TGI (HOP-62 NSCLC) | TGI (SK-MEL-5 melanoma) | TGI (ACHN renal) | GI50 (SW-620 colon) | GI50 (HT29 colon) | GI50 (MOLT-4 leukemia) | GI50 (M14 melanoma) | GI50 (TK-10 renal) | GI50 (SNB-75 CNS) | GI50 (SF-268 CNS) | GI50 (HOP-62 NSCLC) | GI50 (SK-MEL-5 melanoma) | GI50 (ACHN renal)
1 | CCOC(=O)c1cc(C(=O)O)c(=O)n2c1[nH]c1ccccc12 | > 100 µM | > 100 µM | > 100 µM | > 100 µM | > 100 µM | > 100 µM | > 100 µM | > 100 µM | > 100 µM | > 100 µM |  |  |  |  |  |  |  |  |  | 
2 | O=c1ncccn1C1OC(CO)C(O)C1F (centres undefined) | > 100 µM | > 100 µM | > 100 µM | > 100 µM | > 100 µM | > 100 µM | > 100 µM | > 100 µM | > 100 µM | > 100 µM | > 100 µM |  |  |  |  |  |  |  |  | 
3 | CCn1c(-c2nonc2N)nc2c(C#CC(C)(C)O)ncc(OC[C@@H]3CCCN3)c21 | > 19.7 µM | > 25 µM | > 25 µM | > 21.8 µM | > 21.8 µM | > 25 µM | > 25 µM | 24.9 µM | > 25 µM | > 25 µM | 6.84 µM | 5.15 µM | 3.01 µM | 6.95 µM | 1.83 µM | 0.942 µM | 7.84 µM | 7.07 µM | 10.5 µM | 8.76 µM
4 | Cc1cc([C@H](C)Nc2nccc(N3C(=O)OC[C@@H]3[C@H](C)F)n2)ncc1-c1ccnc(C(F)(F)F)c1 | > 100 µM | > 100 µM | > 100 µM | > 100 µM | > 100 µM | > 100 µM | > 100 µM | > 100 µM | 33 µM | > 100 µM | 46.6 µM | 35.6 µM | 34.6 µM | 37.7 µM | 53 µM | 88.2 µM | 54 µM | 28.7 µM | 12.1 µM | 24.7 µM
5 | COc1ccc2c(c1)c(-c1cc(-c3cn(C)c4ccc(OC)cc34)[nH]n1)cn2C | > 100 µM | > 100 µM | > 100 µM | > 100 µM | > 100 µM | > 100 µM | > 100 µM | > 100 µM | > 100 µM | > 100 µM | > 100 µM | > 100 µM | > 100 µM | > 100 µM | > 100 µM | > 100 µM | > 100 µM | > 100 µM | > 100 µM | > 100 µM
6 | O=C1[C@H]2ON(c3ccccc3)C(c3cccc([N+](=O)[O-])c3)[C@H]2C(=O)N1c1ccc(Cc2ccc(N3C(=O)[C@@H]4ON(c5ccccc5)C(c5cccc([N+](=O)[O-])c5)[C@@H]4C3=O)cc2)cc1 (some centres undefined) | > 100 µM | > 100 µM | 60.8 µM | > 100 µM | > 100 µM | > 100 µM | > 100 µM | > 100 µM | > 100 µM | > 100 µM |  |  |  |  |  |  |  |  |  | 
7 | CCOc1cccc(/C=N/NC(=O)Cc2ccc(Nc3ccnc(C(F)(F)F)c3)cc2)c1O | 78.6 µM | 4.42 µM | 15.8 µM | 44.5 µM | 55 µM | 18 µM | 32.4 µM | 30.8 µM | 5.99 µM | > 100 µM | 3.06 µM | 8 µM | 0.499 µM | 1.79 µM | 4.01 µM | 12.4 µM | 1.27 µM | 2.28 µM | 1.67 µM | 1.53 µM
8 | Nc1ccc2c(SCC(=O)Nc3ccccc3-c3ccccc3NC(=O)CSc3c4ccccc4nc4cc(N)ccc34)c3ccccc3nc2c1 | > 100 µM | > 44.1 µM | 59 µM | 75.3 µM | > 96.4 µM | 67.4 µM | 93.3 µM | 63.4 µM | 30.1 µM | > 86.6 µM |  |  |  |  |  |  |  |  |  | 
9 | O=C1c2c(O)ccc(O)c2C(=O)c2c(NCCNCCO)ccc(NCCNCCO)c21 | 1.05 µM and 0.761 µM and 3.63 µM | 0.235 µM and 0.339 µM | 1.77 µM and 0.809 µM and 2.11 µM | 1.36 µM and 0.654 µM and 2.05 µM | 0.122 µM and 0.541 µM and 0.218 µM | 1.91 µM and 1.62 µM and 1.77 µM | 0.32 µM and 0.696 µM and 0.845 µM | 0.122 µM and 0.0851 µM and 0.204 µM | 0.689 µM and 0.329 µM and 0.657 µM | 0.123 µM and 0.783 µM and 0.229 µM |  |  | < 0.01 µM and < 0.005 µM and 0.00476 µM |  |  |  |  |  |  | 
10 | CC(=O)c1c(Nc2ccc(F)c(F)c2F)[nH]c2c(F)cc(F)cc2c1=O | 17.5 µM |  | 4.06 µM | 47.8 µM | 8.52 µM | 18.7 µM | 43.1 µM | 8.18 µM | 0.431 µM | > 26.3 µM | 0.346 µM | 0.356 µM | 0.425 µM | 0.352 µM | 0.503 µM | 0.289 µM | 0.341 µM | 0.335 µM | 0.188 µM | 0.296 µM
11 | OCCN(CCO)c1ncnc2c1sc(=S)n2-c1ccccc1 | > 100 µM | > 100 µM | > 100 µM | > 100 µM | > 100 µM | > 100 µM | > 100 µM | > 100 µM | > 100 µM | > 100 µM |  |  |  |  |  |  |  |  |  | 
12 | C1=CC=C2NCCSCCNC3=CC=CC=CC3=NCCSCCN=C2C=C1 | > 100 µM | > 100 µM | > 100 µM | > 100 µM | > 100 µM | > 100 µM | > 100 µM | > 100 µM | > 100 µM | > 100 µM |  |  |  |  |  |  |  |  |  | 
13 | Oc1cccc(-c2nc(N3CCOCC3)c3oc4ncccc4c3n2)c1 | > 100 µM | > 100 µM |  | 4.01 µM and 4.58 µM | 0.311 µM and 0.114 µM | > 100 µM | > 100 µM and 19.9 µM | 3.7 µM and 5.53 µM | 1.2 µM and 2.44 µM |  | 0.344 µM and 0.353 µM | 6.52 µM and 8.37 µM | 0.102 µM and 0.168 µM | 0.127 µM and 0.152 µM | 1.26 µM and 1.51 µM | 0.0401 µM and < 0.0151 µM | 0.196 µM and 0.181 µM | 0.234 µM and 0.227 µM | 0.263 µM and 0.346 µM | 0.0878 µM and 0.164 µM
14 | COC(=O)C1=C(C(=O)OC)N(C(C)C)[C@H]2C(C(=O)OC)=C(C(=O)OC)N(C(C)C)[C@@H]12 | > 100 µM | > 100 µM | > 100 µM | > 100 µM | > 100 µM | > 100 µM | > 100 µM | > 100 µM | > 100 µM | > 100 µM |  |  |  |  |  |  |  |  |  | 
15 | O=C1Cc2ccccc2CCc2ccccc21 | > 100 µM | > 100 µM | > 100 µM | > 100 µM | > 100 µM | > 100 µM | > 100 µM | > 100 µM | > 100 µM | > 100 µM |  |  |  |  |  |  |  |  |  | 
16 | COc1ccc(-c2cn(-c3cc(OC)c(OC)c(OC)c3)c(=O)n2-c2ccccc2)cc1 | > 100 µM | > 100 µM | > 100 µM | > 100 µM | > 100 µM | > 100 µM | > 100 µM | > 100 µM | > 100 µM | > 100 µM | > 100 µM | 60.6 µM | > 100 µM | > 100 µM | > 100 µM | 30.7 µM | > 100 µM | 66.2 µM | 21.5 µM | > 100 µM
17 | COc1ccc(-c2conc2-c2ccccc2)cc1 | > 100 µM | > 100 µM | > 100 µM | > 100 µM | 0.455 µM | > 100 µM | > 100 µM | > 100 µM | 4.47 µM | > 100 µM | 0.081 µM | 0.112 µM | 0.706 µM | 0.268 µM | 15.3 µM | 0.109 µM | 1.67 µM | 0.43 µM | 0.441 µM | 1.1 µM
18 | N#Cc1c(-c2ccc(Cl)cc2)csc1NC(=O)Nc1cccc(C(F)(F)F)c1 | 10.5 µM | 7.77 µM | 10.1 µM | 8.95 µM | 12.7 µM | 13.9 µM | 14.7 µM | 8.04 µM | 3.18 µM | 6.51 µM | 3.33 µM | 2.5 µM | 1.91 µM | 2.88 µM | 2.23 µM | 2.01 µM | 3.28 µM | 2.33 µM | 1.74 µM | 2.23 µM
19 | CCOc1ccccc1NC(=O)CCC(=O)NN | > 100 µM | > 100 µM | > 100 µM | > 100 µM | > 100 µM | > 100 µM | > 100 µM | > 100 µM | > 100 µM | > 100 µM |  |  |  |  |  |  |  |  |  | 
20 | CCOC(=O)/N=c1\ssc(Cl)c1Cl | > 100 µM | > 100 µM | > 100 µM | 18.5 µM | 87.7 µM | 14.7 µM | 41.6 µM | > 100 µM | 19.1 µM | 4.37 µM | 0.599 µM | 4.43 µM | 3.06 µM | 7.44 µM | 4.72 µM | 30.6 µM | 17.4 µM | 43.7 µM | 3.9 µM | 1.95 µM
21 | O=C(Nc1cccc(Cl)c1)c1cc(Cl)ccc1O | 7.12 µM | 5.04 µM | 5.4 µM | 12.6 µM | 3.86 µM | 9.85 µM | > 40.3 µM | 4.03 µM | 0.857 µM | 10.6 µM | 1.36 µM | 2.49 µM | 1.84 µM | 0.851 µM | 4.36 µM | 0.756 µM | 1.21 µM | 1.33 µM | 0.274 µM | 1.14 µM

— PubChem BioAssay (NCI)
